Measurements published in patent publication US20160015817A1, “METHODS OF TREATMENT OF PEDIATRIC SOLID TUMOR” (priority 2013, published 2016).
“Also recorded” adds a separate entry of the source.

How the values were obtained:
[1] = test system: relapsed RH4 xenografts; test: Relapsed RH4 xenograft model, re-treatment; assay type: in vivo, mice; details: re-treatment on day 52, 59 and 66, Taxol 30 mg/kg or Abraxane 50 mg/kg
Text: Tumor growth was monitored.

[2] = test system: phospho-histone H3; test: Immunohistochemistry of SK-N-BE(2) xenografts, mitotic marker; assay type: in vivo, mice; details: different dosages of Abraxane; Taxol 20 mg/kg/weekly; end of study
[3] = test system: RH4 xenograft; test: RH4 rhabdomyosarcoma subcutaneous xenograft model; details: for local relapse-free interval: RH4 model
Experimental: Briefly, tumor cells were washed three times with HBSS before injection. Mice were given a subcutaneous injection of 1×10^6 tumor cells. Tumor growth was measured weekly in two dimensions using a digital caliper, and tumor volume was calculated as width^2×length×0.5. Once the tumor diameter reached 0.5 cm, mice were randomized into treatment groups with 10 animals in each group. […] Taxol® was administered i.v. at 20 or 30 mg/kg weekly. Control mice received saline. Tumor volume, mouse body weight and signs of animal distress were evaluated twice or three times a week for any potential drug toxicity. Animals were sacrificed once the tumor size reached 1.5 cm^3.
Tumor volume was measured and calculated as width^2×length×0.5. […] Drugs were given on day 52, 59 and 66 with the same schedule and dosage as above. Tumor growth was monitored.

[4] = test system: RD xenograft; test: RD rhabdomyosarcoma xenograft model; assay type: in vivo, mice; details: Taxol 30 mg/kg weekly, Abraxane 50 mg/kg weekly
Experimental: Control mice received saline.
Tumor growth was assessed in RD xenograft model with paclitaxel/Abraxane treatment. In Abraxane treatment group, tumor-bearing mice received Abraxane (50 mg/kg, weekly) treatment. In paclitaxel treatment group, since tumor sizes are reaching the endpoint after 2-week paclitaxel treatment in paclitaxel group, those mice were randomized into two groups with 5 animals in each group on day 15: one group of animals continued receiving 30 mg/kg of paclitaxel and the other group received 50 mg/kg of Abraxane instead.

[5] = test system: phospho-histone H3; test: Immunohistochemistry of RH4 xenografts, mitotic marker; assay type: in vivo, mice; details: 48 hours after Abraxane 50 mg/kg iv or Taxol 30 mg/kg iv
Text: Similarly, RH4 xenografts were harvested and analyzed by IHC for phosphor-histone H3.

[6] = test system: cleaved caspase-3; test: Immunohistochemistry of SK-N-BE(2) xenografts, apoptotic marker; assay type: in vivo, mice; details: different dosages of Abraxane; Taxol 20 mg/kg/weekly; end of study
[7] = test system: A673 Ewing's sarcoma cells; test: A673 Ewing sarcoma subcutaneous xenograft; assay type: in vivo, mice; details: gemcitabine 100 mg/kg i.p. twice weekly with nab-paclitaxel
Experimental: (§1) Briefly, 5×10^6143.98.2 osteosarcoma cells or A673 Ewing's sarcoma cells were suspended in 100 μl PBS and implanted subcutaneously with 33% Matrigel in 5-6 week-old female athymic nu/nu mice. Tumor volume was calculated using the formula L·W2·(π/6), where L=the longest tumor diameter and W=the widest tumor diameter perpendicular to L. When tumors reached 200-300 mm^3, animals were treated with either saline control, nab-paclitaxel 30 mg/kg intravenously on days 1-5 for a single course, gemcitabine 100 mg/kg intraperitoneally twice weekly until death, or the combination of nab-paclitaxel and gemcitabine. Mice were sacrificed once tumors reached 10% body weight (˜2500 mm^3).
(§2) To perform statistical analysis, it was calculated that a sample of 10 mice per group would provide an 80% power to detect a difference in tumor size of 41%, Power was calculated at a significance level of 0.05 using a two-tailed, two sample Student's t-test assuming equal variance. GraphPad Prism 5 software was used to analyze survival by log-rank and tumor growth by two sample Student's t-test.

[8] = test system: 143.98.2 osteosarcoma cells; assay type: in vivo; details: nab-paclitaxel 30 mg/kg i.v. days 1-5; gemcitabine 100 mg/kg i.p. twice weekly; p=0.031 combination vs nab-paclitaxel alone
Experimental: as §1, §2

[9] = dosing on days 1, 8 and 15, Taxol 30 mg/kg, Abraxane 50 mg/kg

SMILES | response of tumors relapsed after Taxol (paclitaxel) treatment [1] | response of tumors relapsed after Taxol (paclitaxel) treatment ([1]; listed as paclitaxel) | phospho-histone H3 positive cells [2] | animals that developed relapsed tumors ([3]; 7 animals per group) | tumor growth (tumor volume) ([3]; Abraxane 50 mg/kg, Taxol 30 mg/kg i.v. weekly) | local relapse-free interval [3] [days] | local relapse-free interval ([3]; listed as paclitaxel) [days] | mice that died ([3]; Taxol 30 mg/kg group, Day 10) | complete regression observed after day [3, 9] [days] | time to tumor relapse after complete regression [3, 9] [days] | tumor growth (tumor volume) [4] | phospho-histone H3 positive cells [5] | apoptotic cell population (cleaved caspase-3 staining) [6] | additive benefit of gemcitabine added to nab-paclitaxel [7] | tumor growth [8]
CC(=O)O[C@H]1C(=O)[C@@]2(C)[C@H]([C@H](OC(=O)c3ccccc3)[C@]3(O)C[C@H](OC(=O)[C@H](O)[C@@H](NC(=O)c4ccccc4)c4ccccc4)C(C)=C1C3(C)C)[C@]1(OC(C)=O)CO[C@@H]1C[C@@H]2O [Taxol®, paclitaxel] | drug resistant against Taxol® | paclitaxel-resistant | only slightly increased phospho-histone H3 positive cells | all Taxol® treated animals demonstrated tumor relapse | significantly inhibited RH4 tumor growth, with tumor regression observed after the 2nd dosage on day 8 | 13.6 ± 2.07 | 34 | 1 out of 7 | > 31 | 11 to 15 | slow the growth of RD tumors, but those tumors grew progressively with no signs of tumor regression; also recorded: significantly inhibited tumor growth | Significant increased population of phospho-histone H3 positive cells | only slightly increased apoptosis in tumors |  | 
Nc1ccn([C@@H]2O[C@H](CO)[C@@H](O)C2(F)F)c(=O)n1 [gemcitabine] |  |  |  |  |  |  |  |  |  |  |  |  |  | no additive benefit | appeared additive
